The results in this text go back to PMC7345083, “Vancomycin-Lipopeptide Conjugates with High Antimicrobial Activity on Vancomycin-Resistant Enterococci” (Pharmaceuticals, 2020).

Converted amounts (≈) assume the structure as drawn.

The test system of assay [1] is E. faecium ATCC 51559 (vanA). It counts as cell-based, Enterococcus faecium. As to conditions: ATCC 51559, 18 h. The protocol:
(§1) The minimum inhibitory concentration (MIC) was determined by microdilution following the EUCAST and CLSI guidelines via the broth microdilution assay on a 96-well plate. Substances were dissolved in saline solution (0.9%) at a concentration equimolar to 1.28 mg/mL vancomycin. With an increasing hydrophobicity, some substances had to be pre-dissolved in DMSO. The final concentration of DMSO remained below 1.5% and was compared to the DMSO control (no antimicrobial effect was observed up to the highest concentration tested (10%)). All substances were serially diluted on the 96-well plate using Mueller-Hinton-Broth II (cation adjusted). Vancomycin was always used as a control. For bacterial loading, an overnight culture of the referring strain was taken and adjusted to a turbidity corresponding to 10^8 cfu/mL. The bacterial suspension was further diluted to load a bacterial number of 10^6 cfu/mL on the 96-well plate and incubate it for 18 h at 35 ± 1 °C, as described before. MIC was defined as the lowest concentration without visible growth.

In assay [2] the test system is Enterococcus faecium UL602570 (vanA, clinical isolate). In kind it is cell-based. As to conditions: UL602570 (vanA, clinical isolate, 18 h). Here is the method:
as §1

The test system of assay [3] is Enterococcus casseliflavus ATCC 700327 (vanC). It counts as cell-based. As to conditions: ATCC 700327, 18 h. Here is the method:
as §1

Assay [4] has as its system E. faecalis ATCC 51299 (vanB). In kind it is cell-based, Enterococcus faecalis. As to conditions: ATCC 51299, 18 h. The protocol: as §1

For `CCCCCCCCCCCC(=O)N[C@@H](CCCNC(=N)N)C(=O)N[C@@H](CCCNC(=N)N)C(=O)N[C@@H](CCCNC(=N)N)C(=O)N[C@@H](CSC1CC(=O)N(CC2CCC(C(=O)NCCNC(=O)[C@H]3NC(=O)[C@H]4NC(=O)[C@H](NC(=O)[C@@H]5NC(=O)[C@H](CC(N)=O)NC(=O)[C@H](NC(=O)[C@@H](CC(C)C)NC)[C@H](O)c6ccc(c(Cl)c6)Oc6cc5cc(c6O[C@@H]5O[C@H](CO)[C@@H](O)[C@H](O)[C@H]5O[C@H]5C[C@](C)(N)[C@H](O)[C@H](C)O5)Oc5ccc(cc5Cl)[C@H]4O)c4ccc(O)c(c4)-c4c(O)cc(O)cc43)CC2)C1=O)C(N)=O` (some centres unmarked) [VC-R3C-C12], the MIC median in assay [1] came to 4.84 µg/mL (≈ 1.95 µM); in assay [2] it was 4.84 µg/mL (≈ 1.95 µM); in assay [3], 4 µg/mL (≈ 1.61 µM); in assay [4], 4 µg/mL (≈ 1.61 µM). Also, the MIC range lay in the range of 4.84 to 9.69 µg/mL in assay [1], 2.42 to 4.84 µg/mL in assay [2] and 1 to 4 µg/mL in assay [3].

In the case of `CCCCCCCCCCCC(=O)N[C@@H](CCCNC(=N)N)C(=O)N[C@@H](CCCNC(=N)N)C(=O)N[C@@H](CCCNC(=N)N)C(=O)N[C@@H](CSC1CC(=O)N(CC2CCC(C(=O)N(C)[C@H](CC(C)C)C(=O)N[C@H]3C(=O)N[C@@H](CC(N)=O)C(=O)N[C@H]4C(=O)N[C@H]5C(=O)N[C@H](C(=O)N[C@H](C(=O)O)c6cc(O)cc(O)c6-c6cc5ccc6O)[C@H](O)c5ccc(c(Cl)c5)Oc5cc4cc(c5O[C@@H]4O[C@H](CO)[C@@H](O)[C@H](O)[C@H]4O[C@H]4C[C@](C)(N)[C@H](O)[C@H](C)O4)Oc4ccc(cc4Cl)[C@H]3O)CC2)C1=O)C(N)=O` (some centres unmarked) [VN-R3C-C12], the MIC median in assay [1] is 4.72 µg/mL (≈ 1.93 µM); in assay [2] it was 2.37 µg/mL (≈ 0.971 µM); in assay [3] it was 2.5 µg/mL (≈ 1.02 µM); in assay [4] it was 4 µg/mL (≈ 1.64 µM). The MIC range was in the range of 4.72 to 9.44 µg/mL in assay [1], 2.37 to 4.73 µg/mL in assay [2] and 1 to 4 µg/mL in assay [3].

Regarding `CC(C)C[C@H](C(=O)N[C@H]1C(=O)N[C@@H](CC(N)=O)C(=O)N[C@H]2C(=O)N[C@H]3C(=O)N[C@H](C(=O)N[C@H](C(=O)O)c4cc(O)cc(O)c4-c4cc3ccc4O)[C@H](O)c3ccc(c(Cl)c3)Oc3cc2cc(c3O[C@@H]2O[C@H](CO)[C@@H](O)[C@H](O)[C@H]2O[C@H]2C[C@](C)(N)[C@H](O)[C@H](C)O2)Oc2ccc(cc2Cl)[C@H]1O)N(C)C(=O)C1CCC(CN2C(=O)CC(SC[C@H](NC(=O)[C@H](CCCNC(=N)N)NC(=O)[C@H](CCCNC(=N)N)NC(=O)[C@@H](N)CCCNC(=N)N)C(N)=O)C2=O)CC1` (some centres unmarked) [VN-R3C], in assay [2], the MIC median worked out at 67.75 µg/mL (≈ 30 µM) and the MIC range was 32.00 to 67.75 µg/mL.

Turning to `CCCCCC(=O)N[C@@H](CCCNC(=N)N)C(=O)N[C@@H](CCCNC(=N)N)C(=O)N[C@@H](CCCNC(=N)N)C(=O)N[C@@H](CSC1CC(=O)N(CC2CCC(C(=O)NCCN[C@@]3(C)C[C@H](O[C@H]4[C@H](Oc5c6cc7cc5Oc5ccc(cc5Cl)[C@@H](O)[C@@H](NC(=O)[C@@H](CC(C)C)NC)C(=O)N[C@@H](CC(N)=O)C(=O)N[C@H]7C(=O)N[C@H]5C(=O)N[C@H](C(=O)N[C@H](C(=O)O)c7cc(O)cc(O)c7-c7cc5ccc7O)[C@H](O)c5ccc(c(Cl)c5)O6)O[C@H](CO)[C@@H](O)[C@@H]4O)O[C@@H](C)[C@H]3O)CC2)C1=O)C(N)=O` (some centres unmarked) [VV-R3C-C6], in assay [2], the MIC median was 4.63 µg/mL (≈ 1.93 µM) and the MIC range lay in the range of 2.31 to 9.25 µg/mL.

Turning to `CCCCCCCC(=O)N[C@@H](CCCNC(=N)N)C(=O)N[C@@H](CCCNC(=N)N)C(=O)N[C@@H](CCCNC(=N)N)C(=O)N[C@@H](CSC1CC(=O)N(CC2CCC(C(=O)NCCN[C@@]3(C)C[C@H](O[C@H]4[C@H](Oc5c6cc7cc5Oc5ccc(cc5Cl)[C@@H](O)[C@@H](NC(=O)[C@@H](CC(C)C)NC)C(=O)N[C@@H](CC(N)=O)C(=O)N[C@H]7C(=O)N[C@H]5C(=O)N[C@H](C(=O)N[C@H](C(=O)O)c7cc(O)cc(O)c7-c7cc5ccc7O)[C@H](O)c5ccc(c(Cl)c5)O6)O[C@H](CO)[C@@H](O)[C@@H]4O)O[C@@H](C)[C@H]3O)CC2)C1=O)C(N)=O` (some centres unmarked) [VV-R3C-C8], in assay [2], the MIC median came out at 1.49 µg/mL (≈ 0.614 µM) and the MIC range lay in the range of 0.30 to 2.39 µg/mL.

`CCCCCCCCCC(=O)N[C@@H](CCCNC(=N)N)C(=O)N[C@@H](CCCNC(=N)N)C(=O)N[C@@H](CCCNC(=N)N)C(=O)N[C@@H](CSC1CC(=O)N(CC2CCC(C(=O)NCCN[C@@]3(C)C[C@H](O[C@H]4[C@H](Oc5c6cc7cc5Oc5ccc(cc5Cl)[C@@H](O)[C@@H](NC(=O)[C@@H](CC(C)C)NC)C(=O)N[C@@H](CC(N)=O)C(=O)N[C@H]7C(=O)N[C@H]5C(=O)N[C@H](C(=O)N[C@H](C(=O)O)c7cc(O)cc(O)c7-c7cc5ccc7O)[C@H](O)c5ccc(c(Cl)c5)O6)O[C@H](CO)[C@@H](O)[C@@H]4O)O[C@@H](C)[C@H]3O)CC2)C1=O)C(N)=O` (some centres unmarked) [VV-R3C-C10]: in assay [2], the MIC median turned out to be 0.63 µg/mL (≈ 0.257 µM) and the MIC range fell in the range of 0.05 to 0.84 µg/mL.

In the case of `CCCCCCCCCCCCCC(=O)N[C@@H](CCCNC(=N)N)C(=O)N[C@@H](CCCNC(=N)N)C(=O)N[C@@H](CCCNC(=N)N)C(=O)N[C@@H](CSC1CC(=O)N(CC2CCC(C(=O)NCCN[C@@]3(C)C[C@H](O[C@H]4[C@H](Oc5c6cc7cc5Oc5ccc(cc5Cl)[C@@H](O)[C@@H](NC(=O)[C@@H](CC(C)C)NC)C(=O)N[C@@H](CC(N)=O)C(=O)N[C@H]7C(=O)N[C@H]5C(=O)N[C@H](C(=O)N[C@H](C(=O)O)c7cc(O)cc(O)c7-c7cc5ccc7O)[C@H](O)c5ccc(c(Cl)c5)O6)O[C@H](CO)[C@@H](O)[C@@H]4O)O[C@@H](C)[C@H]3O)CC2)C1=O)C(N)=O` (some centres unmarked) [VV-R3C-C14], in assay [2], the MIC median was 0.46 µg/mL (≈ 0.183 µM) and the MIC range is 0.31 to 0.62 µg/mL.

As to `CCCCCCCCCCCCCCCC(=O)N[C@@H](CCCNC(=N)N)C(=O)N[C@@H](CCCNC(=N)N)C(=O)N[C@@H](CCCNC(=N)N)C(=O)N[C@@H](CSC1CC(=O)N(CC2CCC(C(=O)NCCN[C@@]3(C)C[C@H](O[C@H]4[C@H](Oc5c6cc7cc5Oc5ccc(cc5Cl)[C@@H](O)[C@@H](NC(=O)[C@@H](CC(C)C)NC)C(=O)N[C@@H](CC(N)=O)C(=O)N[C@H]7C(=O)N[C@H]5C(=O)N[C@H](C(=O)N[C@H](C(=O)O)c7cc(O)cc(O)c7-c7cc5ccc7O)[C@H](O)c5ccc(c(Cl)c5)O6)O[C@H](CO)[C@@H](O)[C@@H]4O)O[C@@H](C)[C@H]3O)CC2)C1=O)C(N)=O` (some centres unmarked) [VV-R3C-C16], in assay [2], the MIC median turned out to be 2.50 µg/mL (≈ 0.985 µM) and the MIC range was in the range of 2.50 to 3.50 µg/mL.

`CCCCCCCCCCCCCCCCCC(=O)N[C@@H](CCCNC(=N)N)C(=O)N[C@@H](CCCNC(=N)N)C(=O)N[C@@H](CCCNC(=N)N)C(=O)N[C@@H](CSC1CC(=O)N(CC2CCC(C(=O)NCCN[C@@]3(C)C[C@H](O[C@H]4[C@H](Oc5c6cc7cc5Oc5ccc(cc5Cl)[C@@H](O)[C@@H](NC(=O)[C@@H](CC(C)C)NC)C(=O)N[C@@H](CC(N)=O)C(=O)N[C@H]7C(=O)N[C@H]5C(=O)N[C@H](C(=O)N[C@H](C(=O)O)c7cc(O)cc(O)c7-c7cc5ccc7O)[C@H](O)c5ccc(c(Cl)c5)O6)O[C@H](CO)[C@@H](O)[C@@H]4O)O[C@@H](C)[C@H]3O)CC2)C1=O)C(N)=O` (some centres unmarked) [VV-R3C-C18]: in assay [2], the MIC median is 2.54 µg/mL (≈ 0.99 µM) and the MIC range was in the range of 1.27 to 2.54 µg/mL.

Take `CN[C@H](CC(C)C)C(=O)N[C@H]1C(=O)N[C@@H](CC(N)=O)C(=O)N[C@H]2C(=O)N[C@H]3C(=O)N[C@H](C(=O)N[C@H](C(=O)O)c4cc(O)cc(O)c4-c4cc3ccc4O)[C@H](O)c3ccc(c(Cl)c3)Oc3cc2cc(c3O[C@@H]2O[C@H](CO)[C@@H](O)[C@H](O)[C@H]2O[C@H]2C[C@](C)(NCCNC(=O)C3CCC(CN4C(=O)CC(SC[C@H](NC(=O)[C@H](CCCNC(=N)N)NC(=O)[C@H](CCCNC(=N)N)NC(=O)[C@@H](N)CCCNC(=N)N)C(N)=O)C4=O)CC3)[C@H](O)[C@H](C)O2)Oc2ccc(cc2Cl)[C@H]1O` (some centres unmarked) [VV-R3C]: in assay [2], the MIC median amounted to 4.35 µg/mL (≈ 1.89 µM) and the MIC range is 4.35 to 8.69 µg/mL.

As for `CCCCCCCCCCCC(=O)N[C@@H](CCCNC(=N)N)C(=O)N[C@@H](CCCNC(=N)N)C(=O)N[C@@H](CCCNC(=N)N)C(=O)N[C@H](Cc1ccc(O)cc1)C(=O)N[C@@H](CSC1CC(=O)N(CC2CCC(C(=O)NCCN[C@@]3(C)C[C@H](O[C@H]4[C@H](Oc5c6cc7cc5Oc5ccc(cc5Cl)[C@@H](O)[C@@H](NC(=O)[C@@H](CC(C)C)NC)C(=O)N[C@@H](CC(N)=O)C(=O)N[C@H]7C(=O)N[C@H]5C(=O)N[C@H](C(=O)N[C@H](C(=O)O)c7cc(O)cc(O)c7-c7cc5ccc7O)[C@H](O)c5ccc(c(Cl)c5)O6)O[C@H](CO)[C@@H](O)[C@@H]4O)O[C@@H](C)[C@H]3O)CC2)C1=O)C(N)=O` (some centres unmarked) [VV-R3yC-C12], in assay [2], the MIC median turned out to be 1.02 µg/mL (≈ 0.386 µM) and the MIC range is 0.25 to 2.03 µg/mL.
